# Test results published in patent publication US20250163038A1, “CBL-B MODULATORS AND USES THEREOF” (Nimbus Clio, Inc., priority 2021, published 2025).
# Key:
# [1] = biological target: Recombinant human Cbl-b (aa 36-427) (Homo sapiens, UniProt Q13191); assay: Cbl-b Biochemical Assay (TR-FRET); conditions: read-out: TR-FRET hCbl-b IC50
# [2] = biological target: T1, Recombinant human c-Cbl (aa 47-435) (Homo sapiens, UniProt P22681); assay: c-Cbl Biochemical Assay (TR-FRET); conditions: hc-Cbl Biochemical Assay (TR-FRET); read-out: TR-FRET hcCbl IC50
# T1 sequence (P22681 47-435): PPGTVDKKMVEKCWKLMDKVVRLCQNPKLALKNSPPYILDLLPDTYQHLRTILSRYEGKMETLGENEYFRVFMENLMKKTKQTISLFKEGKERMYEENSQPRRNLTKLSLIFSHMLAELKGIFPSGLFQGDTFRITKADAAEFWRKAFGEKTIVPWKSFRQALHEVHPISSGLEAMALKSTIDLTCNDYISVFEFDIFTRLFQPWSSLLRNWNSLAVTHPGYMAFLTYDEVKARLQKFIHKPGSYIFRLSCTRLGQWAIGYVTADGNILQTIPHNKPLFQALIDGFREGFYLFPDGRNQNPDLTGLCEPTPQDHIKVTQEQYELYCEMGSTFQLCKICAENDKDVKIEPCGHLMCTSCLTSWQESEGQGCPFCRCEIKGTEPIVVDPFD
# [3] = tested on: Jurkat (clone E6-1) cells with NFAT luciferase reporter; assay: Jurkat reporter assay (NFAT Luciferase); format: cell-based; conditions: Homo sapiens; Jurkat NFAT luciferase reporter cells, anti-CD3 stimulation, 6 hr; read-out: Jurkat NFAT EC50
# Recombinant human Cbl-b (aa 36-427), sequence (Q13191 36-427): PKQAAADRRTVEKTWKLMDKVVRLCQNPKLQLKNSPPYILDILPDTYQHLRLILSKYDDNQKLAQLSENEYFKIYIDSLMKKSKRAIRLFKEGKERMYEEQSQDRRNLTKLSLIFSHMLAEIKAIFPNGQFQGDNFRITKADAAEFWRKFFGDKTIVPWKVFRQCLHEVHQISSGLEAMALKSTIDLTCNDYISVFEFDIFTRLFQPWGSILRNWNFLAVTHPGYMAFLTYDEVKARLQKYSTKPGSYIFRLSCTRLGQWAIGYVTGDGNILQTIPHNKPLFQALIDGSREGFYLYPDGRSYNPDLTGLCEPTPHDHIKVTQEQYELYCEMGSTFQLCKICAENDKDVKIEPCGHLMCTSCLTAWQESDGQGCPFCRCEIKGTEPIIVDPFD
Structure (SMILES),IC50 [1] [nM],IC50 [2] [nM],EC50 [3] [nM]
"CO[C@H](C)CNCc1cc(F)c2oc(-c3cc(-c4ccc(F)cc4-c4nncn4C)cc(C4CC4)n3)nc2c1 [AFN-2, [(2-{6-Cyclopropyl-4-[4-fluoro-2-(4-methyl-1,2,4-triazol-3-yl)phenyl]pyridin-2-yl}-7-fluoro-1,3-benzoxazol-5-yl)methyl][(2R)-2-methoxypropyl]amine]",< 200,< 200,200 to 1000
"CO[C@@H](C)CNCc1cc(F)c2oc(-c3cc(-c4ccc(F)cc4-c4nncn4C)cc(C4CC4)n3)nc2c1 [AFO-2, [(2-{6-Cyclopropyl-4-[4-fluoro-2-(4-methyl-1,2,4-triazol-3-yl)phenyl]pyridin-2-yl}-7-fluoro-1,3-benzoxazol-5-yl)methyl][(2S)-2-methoxypropyl]amine]",< 200,< 200,200 to 1000
"Cn1cnnc1-c1cc(F)ccc1-c1cc(-c2nc3cc(CN4CC(F)C4)cc(F)c3o2)nc(C2CC2)c1 [AFP-3, 2-{6-Cyclopropyl-4-[4-fluoro-2-(4-methyl-1,2,4-triazol-3-yl)phenyl]pyridin-2-yl}-7-fluoro-5-[(3-fluoroazetidin-1-yl)methyl]-1,3-benzoxazole]",1000 to 10000,200 to 1000,1000 to 10000
"COC1(CN[C@@H](C)c2cc(F)c3oc(-c4cc(-c5ccc(F)cc5-c5nncn5C)cc(C5CC5)n4)nc3c2)CCC1 [AFS-2, [(1S)-1-(2-{6-Cyclopropyl-4-[4-fluoro-2-(4-methyl-1,2,4-triazol-3-yl)phenyl]pyridin-2-yl}-7-fluoro-1,3-benzoxazol-5-yl)ethyl][(1-methoxycyclobutyl)methyl]amine]",< 200,< 200,200 to 1000
"COC1(CN[C@H](C)c2cc(F)c3oc(-c4cc(-c5ccc(F)cc5-c5nncn5C)cc(C5CC5)n4)nc3c2)CCC1 [AFT-1, [(1R)-1-(2-{6-Cyclopropyl-4-[4-fluoro-2-(4-methyl-1,2,4-triazol-3-yl)phenyl]pyridin-2-yl}-7-fluoro-1,3-benzoxazol-5-yl)ethyl][(1-methoxycyclobutyl)methyl]amine]",< 200,200 to 1000,1000 to 10000
"COC[C@H](C)NCc1cc(F)c2oc(-c3cc(-c4ccc(F)cc4-c4nncn4C)cc(C4CC4)n3)nc2c1 [AFU-1, [(2-{6-Cyclopropyl-4-[4-fluoro-2-(4-methyl-1,2,4-triazol-3-yl)phenyl]pyridin-2-yl}-7-fluoro-1,3-benzoxazol-5-yl)methyl][(2S)-1-methoxypropan-2-yl]amine]",< 200,< 200,< 200
"COC[C@@H](C)NCc1cc(F)c2oc(-c3cc(-c4ccc(F)cc4-c4nncn4C)cc(C4CC4)n3)nc2c1 [AFV-1, [(2-{6-Cyclopropyl-4-[4-fluoro-2-(4-methyl-1,2,4-triazol-3-yl)phenyl]pyridin-2-yl}-7-fluoro-1,3-benzoxazol-5-yl)methyl][(2R)-1-methoxypropan-2-yl]amine]",< 200,200 to 1000,200 to 1000
"COC(=O)c1cc2nc(-c3cc(-c4ccc(F)cc4-c4nncn4C)cc(C4CC4)n3)oc2c(F)c1F [AFW-1, Methyl 2-{6-cyclopropyl-4-[4-fluoro-2-(4-methyl-1,2,4-triazol-3-yl)phenyl]pyridin-2-yl}-6,7-difluoro-1,3-benzoxazole-5-carboxylate]",1000 to 10000,1000 to 10000,1000 to 10000
"Cn1cnnc1-c1cc(F)ccc1-c1cc(-c2nc3cc(CO)c(F)c(F)c3o2)nc(C2CC2)c1 [AFX-1, (2-{6-cyclopropyl-4-[4-fluoro-2-(4-methyl-1,2,4-triazol-3-yl)phenyl]pyridin-2-yl}-6,7-difluoro-1,3-benzoxazol-5-yl)methanol]",200 to 1000,200 to 1000,200 to 1000
"Cn1cnnc1-c1cc(F)ccc1-c1cc(-c2nc3cc(CN[C@@H]4CCC[C@@H]4O)c(F)c(F)c3o2)nc(C2CC2)c1 [AFY-2, (1S,2R)-2-{[(2-{6-Cyclopropyl-4-[4-fluoro-2-(4-methyl-1,2,4-triazol-3-yl)phenyl]pyridin-2-yl}-6,7-difluoro-1,3-benzoxazol-5-yl)methyl]amino}cyclopentan-1-ol]",< 200,< 200,< 200
"CO[C@H](C)[C@@H](C)NCc1cc(C)c2oc(-c3cc(-c4ccc(F)cc4-c4nncn4C)cc(C4CC4)n3)nc2c1 [AFZ-2, [(2-{6-Cyclopropyl-4-[4-fluoro-2-(4-methyl-1,2,4-triazol-3-yl)phenyl]pyridin-2-yl}-7-methyl-1,3-benzoxazol-5-yl)methyl][(2R,3R)-3-methoxybutan-2-yl]amine]",200 to 1000,200 to 1000,200 to 1000
"Cn1cnnc1-c1cc(F)ccc1-c1cccc(-c2nc3cc(CN4CCC5(CC4)CC5)cc(C(F)(F)F)c3o2)c1 [AG-2, 5-((6-Azaspiro[2.5]octan-6-yl)methyl)-2-(4′-fluoro-2′-(4-methyl-4H-1,2,4-triazol-3-yl)-[1,1′-biphenyl]-3-yl)-7-(trifluoromethyl)benzo[d]oxazole]",< 200,1000 to 10000,1000 to 10000
"Cn1cnnc1-c1cc(F)ccc1-c1cc(-c2nc3cc(CNCC4(O)CCC4)c(F)c(F)c3o2)nc(C2CC2)c1 [AGA-1, 1-({[(2-{6-Cyclopropyl-4-[4-fluoro-2-(4-methyl-1,2,4-triazol-3-yl)phenyl]pyridin-2-yl}-6,7-difluoro-1,3-benzoxazol-5-yl)methyl]amino}methyl)cyclobutan-1-ol]",< 200,< 200,< 200
"COCCNCc1cc2nc(-c3cc(-c4ccc(F)cc4-c4nncn4C)cc(C4CC4)n3)oc2c(F)c1F [AGB-1, [(2-{6-Cyclopropyl-4-[4-fluoro-2-(4-methyl-1,2,4-triazol-3-yl)phenyl]pyridin-2-yl}-6,7-difluoro-1,3-benzoxazol-5-yl)methyl](2-methoxyethyl)amine]",< 200,< 200,< 200
"CO[C@@H](C)[C@H](C)NCc1cc(C)c2oc(-c3cc(-c4ccc(F)cc4-c4nncn4C)cc(C4CC4)n3)nc2c1 [AGC-2, [(2-{6-Cyclopropyl-4-[4-fluoro-2-(4-methyl-1,2,4-triazol-3-yl)phenyl]pyridin-2-yl}-7-methyl-1,3-benzoxazol-5-yl)methyl][(2S,3S)-3-methoxybutan-2-yl]amine]",< 200,< 200,< 200
"Cn1cnnc1-c1cc(F)ccc1-c1cc(-c2nc3cc(CNC(C)(C)C4CCC4)c(F)c(F)c3o2)nc(C2CC2)c1 [AGD-1, (2-Cyclobutylpropan-2-yl)[(2-{6-cyclopropyl-4-[4-fluoro-2-(4-methyl-1,2,4-triazol-3-yl)phenyl]pyridin-2-yl}-6,7-difluoro-1,3-benzoxazol-5-yl)methyl]amine]",< 200,200 to 1000,1000 to 10000
"Cn1cnnc1-c1cc(F)ccc1-c1cc(-c2nc3cc(CNCC4CCC4)c(F)c(F)c3o2)nc(C2CC2)c1 [AGE-1, 1-Cyclobutyl-N-((2-(6-cyclopropyl-4-(4-fluoro-2-(4-methyl-4H-1,2,4-triazol-3-yl)phenyl)pyridin-2-yl)-6,7-difluorobenzo[d]oxazol-5-yl)methyl)methanamine]",< 200,< 200,< 200
"Cn1cnnc1-c1cc(F)ccc1-c1cc(-c2nc3cc(CNCC(C)(C)O)c(F)c(F)c3o2)nc(C2CC2)c1 [AGF-1, 1-{[(2-{6-Cyclopropyl-4-[4-fluoro-2-(4-methyl-1,2,4-triazol-3-yl)phenyl]pyridin-2-yl}-6,7-difluoro-1,3-benzoxazol-5-yl)methyl]amino}-2-methylpropan-2-ol]",< 200,< 200,< 200
"C[C@H]1CCCN(Cc2ccc3oc(-c4cc(-c5ccc(C#N)cc5-c5nncn5C)cc(C5CC5)n4)nc3c2)C1 [AGG-2, 4-[2-Cyclopropyl-6-(5-{[(3S)-3-methylpiperidin-1-yl]methyl}-1,3-benzoxazol-2-yl)pyridin-4-yl]-3-(4-methyl-1,2,4-triazol-3-yl)benzonitrile]",< 200,200 to 1000,200 to 1000
"Cn1cnnc1-c1cc(C#N)ccc1-c1cc(-c2nc3cc(CN4C[C@@H]5C[C@H]4CO5)cc(F)c3o2)nc(C2CC2)c1 [AGH-4, 4-(2-Cyclopropyl-6-{7-fluoro-5-[(1S,4S)-2-oxa-5-azabicyclo[2.2.1]heptan-5-ylmethyl]-1,3-benzoxazol-2-yl}pyridin-4-yl)-3-(4-methyl-1,2,4-triazol-3-yl)benzonitrile]",200 to 1000,200 to 1000,1000 to 10000
"C[C@H]1CCCN(Cc2cc(F)c3oc(-c4cc(-c5ccc(C#N)cc5-c5nncn5C)cc(C5CC5)n4)nc3c2)C1 [AGI-1, 4-[2-Cyclopropyl-6-(7-fluoro-5-{[(3S)-3-methylpiperidin-1-yl]methyl}-1,3-benzoxazol-2-yl)pyridin-4-yl]-3-(4-methyl-1,2,4-triazol-3-yl)benzonitrile]",< 200,< 200,< 200
"COCC(C)(C)NCc1cc(C)c2oc(-c3cc(-c4ccc(F)cc4-c4nncn4C)cc(C4CC4)n3)nc2c1 [AGJ-1, [(2-{6-Cyclopropyl-4-[4-fluoro-2-(4-methyl-1,2,4-triazol-3-yl)phenyl]pyridin-2-yl}-7-methyl-1,3-benzoxazol-5-yl)methyl](1-methoxy-2-methylpropan-2-yl)amine]",< 200,1000 to 10000,200 to 1000
